Results: US20090117154A1, “SYNTHETIC POLYVALENT CARBOHYDRATES AS COMPONENTS OF MICROBICIDES” (priority 2005, published 2009)

Molecular target: T1, DC-SIGN (Homo sapiens, UniProt Q9NNX6)
T1 construct: made in house
Experiment: Inhibition of the binding of soluble DC-SIGN to immobilized HIV-1 Bal gp120 (plate ELISA)
Details: soluble DC-SIGN/mAb complex, gp120 captured on D7324 plate; preliminary assay; FIG. 3
Protocol: Preliminary assays were conducted on the inhibition of the synthetic polyvalent compounds against the binding between HIV-1 gp120 and DC-SIGN. Specifically, plates were coated with 5 ug/mL D7324 anti-gp120 capture antibody, in 1×PBS O/N at RT. Blocking buffer was 5% BSA in 1×TBST+1 mM CaCL2, assay/dilution buffer was 2% BSA in 1×TBST+1 mM CaCL2 and wash buffer was 1×TBST+1 mM CaCL2 (4 washes, 200 uL per well). Gp120 (CHOK1, uQuant) was captured on the D7324 plate at saturation, 500 ng/mL in assay buffer for 2 hour at RT. sDC-SIGN supernatant (Nov. 6, 2004) was supplemented with 1 mM CaCL2 and pre-complexed with 3 ug/mL anti-DC-SIGN mAb (120507, Sigma) for 1 hour at RT. Mannose products were titered 1:2 in assay buffer (Starts 1:4 in column 2), sDC-SIGN/mAb complexes were added to the titered mannose at about 1:5 (155 uL mannose+45 uL sDC-SIGN/mAb) (no sDC-SIGN in column 12), sDC-SIGN/mAb complexes mixed with mannose compounds were allowed to bind to the Gp120 plate for 1 hour at RT. Any bound sDC-SIGN/mAb complexes were detected with goat anti-mouse-IgG-HRP (Axcell) 1:2000 in assay buffer, absorbed with 2% sheep serum.

T1 sequence (Q9NNX6 59-404): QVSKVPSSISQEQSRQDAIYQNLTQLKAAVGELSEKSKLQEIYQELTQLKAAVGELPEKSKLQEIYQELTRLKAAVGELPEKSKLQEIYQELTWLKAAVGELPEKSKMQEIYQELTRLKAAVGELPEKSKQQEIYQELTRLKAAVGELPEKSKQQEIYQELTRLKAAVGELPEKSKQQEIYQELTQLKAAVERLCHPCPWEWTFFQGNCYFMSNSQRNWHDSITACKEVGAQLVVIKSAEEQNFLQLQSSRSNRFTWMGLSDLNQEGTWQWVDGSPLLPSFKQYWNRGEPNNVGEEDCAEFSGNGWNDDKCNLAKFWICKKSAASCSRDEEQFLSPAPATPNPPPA

CC(=O)N[C@@H]1[C@@H](O)[C@H](O[C@@H]2O[C@H](CO)[C@@H](O[C@@H]3O[C@H](CO[C@H]4O[C@H](CO[C@H]5O[C@H](CO)[C@@H](O)[C@H](O)[C@@H]5O[C@H]5O[C@H](CO)[C@@H](O)[C@H](O)[C@@H]5O)[C@@H](O)[C@H](O[C@H]5O[C@H](CO)[C@@H](O)[C@H](O)[C@@H]5O[C@H]5O[C@H](CO)[C@@H](O)[C@H](O)[C@@H]5O)[C@@H]4O)[C@@H](O)[C@H](O[C@H]4O[C@H](CO)[C@@H](O)[C@H](O)[C@@H]4O[C@H]4O[C@H](CO)[C@@H](O)[C@H](O)[C@@H]4O[C@H]4O[C@H](CO)[C@@H](O)[C@H](O)[C@@H]4O)[C@@H]3O)[C@H](O)[C@H]2NC(C)=O)[C@@H](CO)O[C@H]1NC(=O)C[C@H](N)C(=O)O [Man9, Man9GlcNAc2Asn]
inhibition of the binding of soluble DC-SIGN to immobilized gp120 (in words): much better than the disaccharide and monosaccharide in inhibition
